According to US20230303513A1, “OXOPYRROLIDINE UREA FPR2 AGONISTS” (BRISTOL-MYERS SQUIBB COMPANY, priority 2020, published 2023):
Read-outs that look alike come from different tables or passages of the source.

What was measured:
human FPR2 = human FPR2 (Homo sapiens (Human), UniProt P25090); assay: FPR2 cyclic adenosine monophosphate (cAMP) assay; assay type: cell-based; details: read-out: hFPR2 cAMP2 EC50
Text: (§1) N-formyl peptide receptors (FPRs) are a family of chemo attractant receptors that facilitate leukocyte response during inflammation. FPRs belong to the seven-transmembrane G protein-coupled receptor superfamily and are linked to inhibitory G-proteins (Gi). Three family members (FPR1, FPR2 and FPR3) have been identified in humans and are predominantly found in myeloid cells with varied distribution and have also been reported in multiple organs and tissues. After agonist binding, the FPRs activate a multitude of physiological pathways, such as intra cellular signaling transduction, Ca^21 mobilization and transcription. The family interacts with a diverse set of ligands that includes proteins, polypeptides and fatty acid metabolites which activate both pro-inflammatory and pro-resolution downstream responses. FPR2 and FPR1 Cyclic Adenosine Monophosphate (cAMP) Assays were used to measure the activity of the compounds in this patent.
(§2) FPR2 and FPR1 Cyclic Adenosine Monophosphate (cAMP) Assays. A mixture of forskolin (5 μM final for FPR2 or 10 μM final for FPR1) and IBMX (200 μM final) were added to 384-well Proxiplates (Perkin-Elmer) pre-dotted with test compounds in DMSO (1% final) at final concentrations in the range of 0.020 nM to 100 μM. Chinese Hamster Ovary cells (CHO) overexpressing human FPR1 or human FPR2 receptors were cultured in F-12 (Ham's) medium supplemented with 10% qualified FBS, 250 μg/ml zeocin and 300 μg/ml hygromycin (Life Technologies). Reactions were initiated by adding 2,000 human FPR2 cells per well or 4,000 human FPR1 cells per well in Dulbecco's PBS (with calcium and magnesium) (Life Technologies) supplemented with 0.1% BSA (Perkin-Elmer). The reaction mixtures were incubated for 30 min at room temperature. The level of intracellular cAMP was determined using the HTRF HiRange cAMP assay reagent kit (Cisbio) according to manufacturer's instruction. Solutions of cryptate conjugated anti-cAMP and d2 flurorophore-labelled cAMP were made in a supplied lysis buffer separately. Upon completion of the reaction, the cells were lysed with equal volume of the d2-cAMP solution and anti-cAMP solution. After a 1-h room temperature incubation, time-resolved fluorescence intensity was measured using the Envision (Perkin-Elmer) at 400 nm excitation and dual emission at 590 nm and 665 nm. A calibration curve was constructed with an external cAMP standard at concentrations ranging from 1 μM to 0.1 μM by plotting the fluorescent intensity ratio from 665 nm emission to the intensity from the 590 nm emission against cAMP concentrations. The potency and activity of a compound to inhibit cAMP production was then determined by fitting to a 4-parametric logistic equation from a plot of cAMP level versus compound concentrations.

human FPR1 = human FPR1 (Homo sapiens (Human), UniProt P21462); assay: FPR1 cyclic adenosine monophosphate (cAMP) assay; assay type: cell-based; details: read-out: hFPR1 cAMP EC50
Text: as §1, §2

[1] = CHO cells overexpressing human FPR2, forskolin 5 μM, IBMX 200 μM, inhibition of cAMP production, HTRF
[2] = CHO cells overexpressing human FPR1, forskolin 10 μM, IBMX 200 μM, inhibition of cAMP production, HTRF

Sequence of human FPR1 (P21462 whole entry): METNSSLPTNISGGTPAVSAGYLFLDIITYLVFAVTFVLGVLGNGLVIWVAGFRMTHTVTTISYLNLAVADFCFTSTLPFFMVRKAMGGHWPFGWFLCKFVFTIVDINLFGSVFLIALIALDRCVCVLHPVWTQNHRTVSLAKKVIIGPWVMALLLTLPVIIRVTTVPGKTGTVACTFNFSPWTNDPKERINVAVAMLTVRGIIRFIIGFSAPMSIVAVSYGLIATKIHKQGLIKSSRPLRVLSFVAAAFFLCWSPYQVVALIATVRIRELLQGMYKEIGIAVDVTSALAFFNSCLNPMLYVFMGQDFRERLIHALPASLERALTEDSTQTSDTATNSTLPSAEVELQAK
Sequence of human FPR2 (P25090 whole entry): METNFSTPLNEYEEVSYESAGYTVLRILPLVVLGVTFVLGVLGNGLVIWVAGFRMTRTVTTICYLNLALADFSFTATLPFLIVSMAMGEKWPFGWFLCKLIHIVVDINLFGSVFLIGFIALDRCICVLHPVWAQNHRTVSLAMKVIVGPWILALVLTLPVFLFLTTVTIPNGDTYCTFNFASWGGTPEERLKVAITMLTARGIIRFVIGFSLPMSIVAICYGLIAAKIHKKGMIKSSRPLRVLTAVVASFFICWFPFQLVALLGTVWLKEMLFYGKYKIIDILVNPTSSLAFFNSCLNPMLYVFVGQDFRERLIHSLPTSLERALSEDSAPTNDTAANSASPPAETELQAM

| Compound | EC50 (human FPR2; [1]) [nM] | EC50 (human FPR1; [2]) [nM] | EC50 (human FPR2) [nM] | EC50 (human FPR1) [nM] |
| --- | --- | --- | --- | --- |
| COc1cc(F)c([C@@H]2CN(c3cccn(CCO)c3=O)C(=O)[C@H]2NC(=O)NC2CCc3cc(Cl)ccc3C2)c(F)c1 (stereo partly drawn) [Example 14] | 1.4 | 0.8 | – | – |
| COc1cc(F)c([C@H]2[C@H](NC(=O)NC3CCc4cc(OC)ccc4C3)C(=O)N(c3ncccc3OC)[C@H]2C)c(F)c1 (stereo partly drawn) [Example 15] | 1.5 | 13.2 | – | – |
| COCCn1cccc(N2C[C@@H](c3ccc(OC)cc3)[C@H](NC(=O)NC3CCc4cc(Cl)ccc4C3)C2=O)c1=O (stereo partly drawn) [Example 16] | 1.7 | 4.7 | – | – |
| COCCn1cccc(N2C[C@@H](c3c(F)cc(OC)cc3F)[C@H](NC(=O)NC3CCc4cc(Cl)ccc4C3)C2=O)c1=O (stereo partly drawn) [Example 17] | 1.7 | 0.6 | – | – |
| COc1cc(F)c([C@H]2[C@H](NC(=O)NC3CCc4cc(OC)ccc4C3)C(=O)N(c3ncccc3OC)[C@H]2C)c(F)c1 (stereo partly drawn) [Example 18] | 1.8 | 0.2 | – | – |
| COc1cc(F)c([C@@H]2CN(c3cccn(CCO)c3=O)C(=O)[C@H]2NC(=O)NC2CCc3cc(Cl)ccc3C2)c(F)c1 (stereo partly drawn) [Example 19] | 1.9 | 30.1 | – | – |
| COCCn1cccc(N2C[C@@H](c3c(F)cc(OC)cc3F)[C@H](NC(=O)NC3CCc4cc(Cl)ccc4C3)C2=O)c1=O (stereo partly drawn) [Example 20] | 2.6 | 38.9 | – | – |
| COc1cc(F)c([C@@H]2CN(c3cccn(CCO)c3=O)C(=O)[C@H]2NC(=O)NC2CCc3cc(OC)ccc3C2)c(F)c1 (stereo partly drawn) [Example 21] | 1.5 | 0.4 | – | – |
| COCCn1ccc(C)c(N2C[C@@H](c3c(F)cc(OC)cc3F)[C@H](NC(=O)NC3CCc4cc(Cl)ccc4C3)C2=O)c1=O (stereo partly drawn) [Example 22] | 2.7 | 2.1 | – | – |
| COc1cc(F)c([C@@H]2CN(c3ncccc3C(F)(F)F)C(=O)[C@H]2NC(=O)NC2CCc3ccccc3C2)c(F)c1 (stereo partly drawn) [Example 24] | 2.8 | 18 | – | – |
| COc1cc(F)c([C@@H]2CN(c3nccc(N4C[C@@H](C)N(C)[C@@H](C)C4)c3C(F)(F)F)C(=O)[C@H]2NC(=O)N[C@H]2CC[C@H](C(F)F)CC2)c(F)c1 [Example 25] | 2.8 | 1630 | – | – |
| COCCn1cccc(N2C(=O)[C@@H](NC(=O)NC3CCc4cc(Cl)ccc4C3)[C@H](c3c(F)cc(OC)cc3F)[C@@H]2C)c1=O (stereo partly drawn) [Example 27] | 2.9 | 2.5 | – | – |
| COc1cc(F)c([C@@H]2CN(c3ncccc3C(F)(F)F)C(=O)[C@H]2NC(=O)NC2COc3cc(OC)ccc3C2)c(F)c1 (stereo partly drawn) [Example 28] | 3.3 | 3 | – | – |
| COCCn1cccc(N2C(=O)[C@@H](NC(=O)NC3CCc4cc(OC)ccc4C3)[C@H](c3c(F)cc(OC)cc3F)[C@@H]2C)c1=O (stereo partly drawn) [Example 29] | 3.3 | 2.4 | – | – |
| COc1cc(F)c([C@@H]2CN(c3nccc(N4CCN(C)CC4)c3C(F)(F)F)C(=O)[C@H]2NC(=O)N[C@H]2CC[C@H](C(F)F)CC2)c(F)c1 [Example 30] | 3.6 | 2500 | – | – |
| COc1cc(F)c([C@@H]2CN(c3ncccc3C(F)(F)F)C(=O)[C@H]2NC(=O)NC2CCc3cc(Cl)ccc3C2)c(F)c1 (stereo partly drawn) [Example 31] | 3.8 | 110 | – | – |
| COc1cc(F)c([C@@H]2CN(c3ncccc3C(F)(F)F)C(=O)[C@H]2NC(=O)N[C@H]2CC[C@H](C(F)F)CC2)c(F)c1 [Example 32] | – | – | 3.9 | 1200 |
| COc1cc(F)c([C@@H]2CN(c3ncccc3C(F)(F)F)C(=O)[C@H]2NC(=O)NC2COc3cc(OC)ccc3C2)c(F)c1 (stereo partly drawn) [Example 33] | 4 | 4.2 | – | – |
| COCCn1cccc(N2C[C@@H](c3c(F)cc(OC)cc3F)[C@H](NC(=O)NC3CCc4cc(OC)ccc4C3)C2=O)c1=O (stereo partly drawn) [Example 34] | 4.2 | 0.3 | – | – |
| COc1ccc([C@H]2C[C@@H]2NC(=O)N[C@@H]2C(=O)N(c3ncccc3C(F)(F)F)C[C@H]2c2c(F)cc(OC)cc2F)cc1 [Example 35] | 4.5 | 62 | – | – |
| CCn1cccc(N2C[C@@H](c3c(F)cc(OC)cc3F)[C@H](NC(=O)NC3CCc4cc(OC)ccc4C3)C2=O)c1=O (stereo partly drawn) [Example 37] | 4.5 | 11 | – | – |

| Compound | EC50 (human FPR2; [1]) [nM] | EC50 (human FPR1; [2]) [nM] | EC50 (human FPR2) [nM] | EC50 (human FPR1) [nM] |
| --- | --- | --- | --- | --- |
| COCCn1ccc(OC)c(N2C[C@@H](c3c(F)cc(OC)cc3F)[C@H](NC(=O)NC3CCc4cc(Cl)ccc4C3)C2=O)c1=O (stereo partly drawn) [Example 38] | 4.5 | 1.3 | – | – |
| COCCn1cccc(N2C(=O)[C@@H](NC(=O)NC3CCc4cc(OC)ccc4C3(C)C)[C@H](c3c(F)cc(OC)cc3F)[C@@H]2C)c1=O (stereo partly drawn) [Example 40] | 5.3 | 200 | – | – |
| CCn1cccc(N2C[C@@H](c3c(F)cc(OC)cc3F)[C@H](NC(=O)NC3CCc4cc(OC)ccc4C3)C2=O)c1=O (stereo partly drawn) [Example 41] | 5.6 | 0.5 | – | – |
| COCCn1cccc(N2C[C@@H](c3ccc(OC)cc3)[C@H](NC(=O)NC3CCc4cc(OC)ccc4C3)C2=O)c1=O (stereo partly drawn) [Example 42] | 5.8 | 1.7 | – | – |
| COc1cc(F)c([C@@H]2CN(c3ncccc3C(F)(F)F)C(=O)[C@H]2NC(=O)NC2CCc3cc(Cl)ccc3C2)c(F)c1 (stereo partly drawn) [Example 43] | 6 | 7.1 | – | – |
| COCCn1cccc(N2C[C@@H](c3c(F)cc(OC)cc3F)[C@H](NC(=O)NC3CCc4cc(OC)ccc4C3(C)C)C2=O)c1=O (stereo partly drawn) [Example 45] | 6.7 | 562 | – | – |
| COc1cc(F)c([C@@H]2CN(c3ncccc3C(F)(F)F)C(=O)[C@H]2NC(=O)NC2CCc3cc(OC)ccc3C2)c(F)c1 (stereo partly drawn) [Example 46] | 7.1 | 1.5 | – | – |
| COc1cc(F)c([C@@H]2CN(c3ncccc3C(F)(F)F)C(=O)[C@H]2NC(=O)NC2CCc3cc(OC)ccc3C2)c(F)c1 (stereo partly drawn) [Example 47] | 7.3 | > 10000 | – | – |
| COc1cc(F)c([C@H]2[C@H](NC(=O)N[C@H]3CC[C@H](C(F)F)CC3)C(=O)N(c3ncccc3OC)[C@H]2C)c(F)c1 [Example 48] | 7.4 | 600 | – | – |
| COc1ccc([C@H]2C[C@@H]2NC(=O)N[C@@H]2C(=O)N(c3ncccc3C(F)(F)F)C[C@H]2c2c(F)cc(OC)cc2F)cc1 [Example 49] | 9.9 | 2500 | – | – |
| COCCn1ccc(OC)c(N2C[C@@H](c3c(F)cc(OC)cc3F)[C@H](NC(=O)NC3CCc4cc(OC)ccc4C3)C2=O)c1=O (stereo partly drawn) [Example 50] | 12 | 1.2 | – | – |
| COc1cc(F)c([C@H]2[C@H](NC(=O)N[C@H]3CC[C@H](C(F)F)CC3)C(=O)N(c3ncccc3OC(C)C)[C@H]2C)c(F)c1 [Example 51] | 12 | 77 | – | – |
| CCn1cccc(N2C[C@@H](c3c(F)cc(OC)cc3F)[C@H](NC(=O)NC3CCc4cc(OC)ccc4C3(C)C)C2=O)c1=O (stereo partly drawn) [Example 52] | 13 | 593 | – | – |
| COCCn1cccc(N2C[C@@H](c3c(F)cc(OC)cc3F)[C@H](NC(=O)NC3CCc4cc(OC)ccc4C3)C2=O)c1=O (stereo partly drawn) [Example 53] | 13 | 24.6 | – | – |
| COCCn1cccc(N2C[C@@H](c3c(F)cc(OC)cc3F)[C@H](NC(=O)NC3CCc4cc(OC)ccc4C3(C)C)C2=O)c1=O (stereo partly drawn) [Example 54] | 19 | 8.8 | – | – |
| COCCn1cccc(N2C[C@@H](c3ccc(Cl)cc3)[C@H](NC(=O)NC3CCc4cc(OC)ccc4C3)C2=O)c1=O (stereo partly drawn) [Example 55] | 24 | 0.5 | – | – |
| COc1cc(F)c([C@@H]2CN(c3c(OC)ccn(C)c3=O)C(=O)[C@H]2NC(=O)NC2CCc3cc(OC)ccc3C2)c(F)c1 (stereo partly drawn) [Example 57] | 26 | 1.2 | – | – |
| COc1cc(F)c([C@@H]2CN(c3ncccc3C(F)(F)F)C(=O)[C@H]2NC(=O)NC2CCc3cc(OC)ccc3C2(C)C)c(F)c1 (stereo partly drawn) [Example 58] | 29 | 220 | – | – |
| COc1cc(F)c([C@H]2[C@H](NC(=O)NC3CCc4cc(OC)ccc4C3(C)C)C(=O)N(c3ncccc3C(F)(F)F)[C@H]2C)c(F)c1 (stereo partly drawn) [Example 59] | 29 | 470 | – | – |
| CCn1cccc(N2C[C@@H](c3c(F)cc(OC)cc3F)[C@H](NC(=O)NC3CCc4cc(OC)ccc4C3(C)C)C2=O)c1=O (stereo partly drawn) [Example 61] | 33 | 17 | – | – |
| COCCn1cccc(N2C(=O)[C@@H](NC(=O)NC3CCc4cc(OC)ccc4C3(C)C)[C@H](c3c(F)cc(OC)cc3F)[C@@H]2C)c1=O (stereo partly drawn) [Example 62] | 36 | 23 | – | – |
